Source: patent publication US4320057A, “Aryl--pyrrolo--thiazepin--diones and aryl--piperidino--thiazepin--diones” (American Home Products Corporation, priority 1981, dated 1982)

Molecular target: T1, angiotensin converting enzyme (Oryctolagus cuniculus, UniProt P12822)
T1 construct: A crude angiotensin converting enzyme supernatant is obtained by blending 1 gm. of rabbit lung acetone powder; tissue PelFreez Biologicals; host or cells: rabbit lung acetone powder, crude 40,000 xg supernatant
T1 sequence (P12822 34-1310): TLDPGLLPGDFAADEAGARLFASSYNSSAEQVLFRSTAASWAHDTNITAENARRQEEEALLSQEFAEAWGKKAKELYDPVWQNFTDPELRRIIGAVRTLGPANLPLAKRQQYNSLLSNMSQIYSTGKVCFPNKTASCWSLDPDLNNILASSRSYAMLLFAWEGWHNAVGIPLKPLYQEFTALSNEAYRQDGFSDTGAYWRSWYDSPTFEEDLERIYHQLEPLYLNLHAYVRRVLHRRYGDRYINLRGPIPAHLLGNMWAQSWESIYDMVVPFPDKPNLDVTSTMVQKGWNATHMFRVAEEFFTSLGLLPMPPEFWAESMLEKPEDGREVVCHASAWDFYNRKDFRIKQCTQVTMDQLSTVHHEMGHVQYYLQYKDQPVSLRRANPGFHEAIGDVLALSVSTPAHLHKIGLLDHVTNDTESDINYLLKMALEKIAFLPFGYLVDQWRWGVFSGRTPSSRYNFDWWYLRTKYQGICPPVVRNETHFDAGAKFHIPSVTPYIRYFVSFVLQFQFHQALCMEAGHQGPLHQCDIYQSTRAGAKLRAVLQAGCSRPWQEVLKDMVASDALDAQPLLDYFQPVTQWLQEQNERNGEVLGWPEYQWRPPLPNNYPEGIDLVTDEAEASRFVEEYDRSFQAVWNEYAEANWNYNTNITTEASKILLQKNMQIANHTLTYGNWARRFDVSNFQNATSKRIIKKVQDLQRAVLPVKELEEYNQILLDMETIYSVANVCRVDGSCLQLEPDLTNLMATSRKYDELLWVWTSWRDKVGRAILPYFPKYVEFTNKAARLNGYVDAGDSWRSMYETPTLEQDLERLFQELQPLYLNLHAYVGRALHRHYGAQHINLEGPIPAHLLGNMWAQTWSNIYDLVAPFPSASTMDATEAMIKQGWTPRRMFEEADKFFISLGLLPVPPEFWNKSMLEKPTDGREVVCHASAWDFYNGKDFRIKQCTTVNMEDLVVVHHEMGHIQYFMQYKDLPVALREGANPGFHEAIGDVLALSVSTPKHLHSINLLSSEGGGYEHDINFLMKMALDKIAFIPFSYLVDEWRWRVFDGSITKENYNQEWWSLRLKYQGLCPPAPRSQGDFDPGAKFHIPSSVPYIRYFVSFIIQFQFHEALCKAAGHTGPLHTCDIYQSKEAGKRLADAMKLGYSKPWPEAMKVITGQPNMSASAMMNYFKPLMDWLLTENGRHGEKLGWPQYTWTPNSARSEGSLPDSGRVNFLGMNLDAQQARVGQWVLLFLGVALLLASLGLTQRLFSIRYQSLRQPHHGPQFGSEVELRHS
Assay: incubation of hippuryl-L-histidyl-L-leucine with angiotensin converting enzyme (HHL hydrolysis)
Assay type: biochemical, rabbit
Settings: 100 ng/ml; read-out: inhibition of angiotensin converting enzyme in vitro
Description: The activity of the compounds of this invention was established by incubation of hippuryl-L-histidyl-L-leucine at 37° C. with angiotensin converting enzyme by the following procedure:
A crude angiotensin converting enzyme supernatant is obtained by blending 1 gm. of rabbit lung acetone powder (PelFreez Biologicals) with 35 ml of 50 mM (buffered) potassium phosphate, pH 8.3 and centrifuging for 45 min. at 40,000 xg.
The specific angiotensin converting enzyme substrate Hippuryl-L-histidyl-L-leucine (HHL-Sigma Chem. Co.) is prepared at 5 mM in 200 mM potassium phosphate buffer containing 757 mM NaCl at pH 8.3.
Incubation for the assay of HHL hydrolysis by angiotensin converting enzyme is carried out in a 37° C. gyrorotary incubator in disposable 13×100 mm tubes. Each 0.25 ml assay mixture contains the following components at the final concentrations: potassium phosphate buffer, 100 mM; NaCl, 300 mM; HHL, 5 mM; and enzyme 0.15 ml (10 mU approx.) added last to initiate the reaction. Zero time controls have 0.25 ml of 2N HCl added before the enzyme. The timed reactions are terminated with acid at 30 min. similarly and the hippuric acid freed from substrate is extracted into 1.5 ml of ethylacetate by vortex mixing for 15 sec. […]
The hippuric acid is resuspended in 1.0 ml of water, the absorbance at 228 nm is determined, and the amount present is calculated from a standard curve. […]

- inhibition at 0.1 µg/mL: 5%
SMILES: CC(CSC(=O)c1ccccc1)C(=O)N1C(C(=O)O)CCC1c1ccccc1 (stereo not drawn) [α-acid of Example 7, α-and β-5-Phenyl-1-(3-benzoylthio-2-methyl-1-oxopropyl)proline]
